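Interpolation was linear, between the two tested concentrations surrounding the appropriate level; five concentrations were tested over 48 hours in 96-well plates. GI50 is the concentration that inhibits growth by half. TGI is the concentration that stops growth completely.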 Where only a bound is given, the exact number is not on record here.

In general, TGI refers to the concentration giving total growth inhibition. One may read the GI50 as the concentration that inhibits growth by half.

Common to all, as to experiment: DTP human tumour cell line panel, 48 h
In assay [1] the test system is CCRF-CEM leukemia.
Assay [2] relates to COLO 205 colon.
The test system of assay [3] is MALME-3M melanoma.
Assay [4] deals with NCI-H23 lung.
Assay [5] has as its system SF-539 CNS.
Assay [6] concerns SK-MEL-28 melanoma.
Assay [7] has as its system SW-620 colon.
Assay [8] relates to TK-10 renal.

Consider `C/C(CC(=O)Nc1cc(Cl)c(Cl)cc1Cl)=N\NS(=O)(=O)c1ccc(C)cc1`, for which the TGI in assay [1] is over 100 µM; in assay [2] it was 61.1 µM; in assay [3], over 100 µM; in assay [4], 54.6 µM; in assay [5], 85.8 µM; in assay [6], over 100 µM. The total growth inhibition concentration (TGI) in assay [7] and in assay [8] was over 100 µM throughout.
On to `O=C1/C(=C/c2ccc(Cl)cc2)COc2ccc(Br)cc21`, for which the total growth inhibition concentration (TGI) in assay [1], in assay [2], in assay [3], in assay [4], in assay [5] and in assay [6] was over 100 µM each time. Also, the TGI in assay [7] and in assay [8] was over 100 µM each time.
As for `COc1ccccc1NC(=O)NS(=O)(=O)c1ccccc1`, the TGI in assay [2], in assay [3], in assay [4], in assay [5], in assay [6] and in assay [7] was over 100 µM throughout. Besides, in assay [8], the TGI is over 100 µM.
As to `CCC1C(=O)OCc2c1cc1n(c2=O)Cc2ccccc2-1` (stereo unspecified), the TGI in assay [1], in assay [3], in assay [4], in assay [5], in assay [6] and in assay [7] was over 100 µM each time. In addition, the TGI in assay [8] is over 100 µM.
In the case of `Cc1cccc2c1C(=O)OC2(c1cccc2ccccc12)c1cccc2ccccc12`, the total growth inhibition concentration (TGI) in assay [1], in assay [2], in assay [3], in assay [4], in assay [6] and in assay [7] was over 100 µM throughout. This molecule also came in with a concentration for total growth inhibition (TGI) in assay [8] of over 100 µM.
Consider `CC(C(=O)C(C)O[Si](c1ccccc1)(c1ccccc1)C(C)(C)C)=P(c1ccccc1)(c1ccccc1)c1ccccc1` (stereo unspecified), for which the total growth inhibition concentration (TGI) in assay [1] stood at 15.8 µM; in assay [2], 3.45 µM; in assay [3] it was 12 µM; in assay [4], 15.5 µM; in assay [5], 13.4 µM; in assay [7], 15.4 µM. In addition, the TGI in assay [8] amounted to 16.9 µM.
In the case of `O=C1/C(=C/c2ccccc2)CN(C(=O)Oc2ccccc2)C/C1=C\c1ccccc1`, the TGI was 23.9 µM in assay [1]; over 100 µM in assay [2]; over 100 µM in assay [3]; over 100 µM in assay [4]; 22.3 µM in assay [5]; over 100 µM in assay [6]. The concentration for total growth inhibition (TGI) in assay [7] was over 100 µM; in assay [8] it was 42.5 µM.
In the case of `CCCN(CCC)c1c([N+](=O)[O-])cc(C(N)=O)cc1[N+](=O)[O-]`, the concentration for total growth inhibition (TGI) in assay [1], in assay [2], in assay [3], in assay [4], in assay [5] and in assay [6] was over 100 µM each time. For the same molecule, the total growth inhibition concentration (TGI) in assay [8] is over 100 µM.
Regarding `COc1cccc(C2N3CCCCC3[C@@H]3c4[nH]c5ccccc5c4CCN23)c1OC` (stereo partly specified), the TGI in assay [1] came to 35.4 µM; in assay [2], 29.2 µM; in assay [4] it was 30.6 µM; in assay [5] it was 28.5 µM; in assay [6] it was 30.4 µM; in assay [7] it was 33.4 µM. The TGI in assay [8] came out at 33.4 µM.
As to `CCC[CH2][Sn]1([CH2]CCC)[O]N=Cc2ccccc2[O]1`, the GI50 was 713 nM in assay [2]; 439 nM in assay [3]; 413 nM in assay [4]; 1170 nM in assay [5]; 580 nM in assay [6]; 241 nM in assay [7]. In addition, the GI50 in assay [8] is 0.555 µM. For the same molecule, the TGI stood at 1.96 µM in assay [2]; 0.978 µM in assay [3]; 1.68 µM in assay [4]; 2.43 µM in assay [5]; 1.87 µM in assay [6]; 1.11 µM in assay [7]. In assay [8], this molecule displayed a total growth inhibition concentration (TGI) of 1.72 µM.
With `N#CC(N)(C(=O)C(=O)NCCCNC(=O)C(=O)C(N)(C#N)c1ccc(Cl)cc1)c1ccc(Cl)cc1` (stereo unspecified), the TGI in assay [1], in assay [2], in assay [3], in assay [4], in assay [5] and in assay [6] was over 100 µM in each case. The TGI in assay [7] and in assay [8] was over 100 µM each time.
As to `CC(C)=CCCC1(C)C=Cc2c(ccc3c2[nH]c2cc(O)c(C)cc23)O1` (stereo unspecified), the GI50 in assay [1] was 4.97 µM; in assay [3], 5200 nM; in assay [5], 4590 nM; in assay [7], 4680 nM; in assay [8], 16.7 µM. Further, the TGI in assay [1] is 15.2 µM; in assay [2], over 2.5 µM; in assay [3] it was 11 µM; in assay [5], 9.78 µM; in assay [6], over 2.5 µM; in assay [7] it was 9.49 µM. The concentration for total growth inhibition (TGI) in assay [8] was over 25 µM.
`COc1ccc2nc(NC(=O)C(=O)C(C#N)c3ccc(CC#N)cc3)sc2c1` (stereo unspecified): the TGI in assay [1], in assay [2], in assay [3], in assay [4], in assay [5] and in assay [6] was over 100 µM in each case. In addition, the TGI in assay [7] and in assay [8] was over 100 µM in each case.
Consider `CCc1cc2c(c3[nH]ccc13)[C@@H](C)C[C@H]2C`, for which the total growth inhibition concentration (TGI) in assay [1] was 43.4 µM; in assay [2], 38.1 µM; in assay [3], 35.4 µM; in assay [4], 37.8 µM; in assay [6] it was 30 µM; in assay [7], 41 µM. In assay [8], this molecule came in with a TGI of 36.8 µM.
Regarding `Nc1ccc(C(=O)N/C(=C\c2ccc3c(c2)OCO3)c2nc3ccc4c(c3[nH]2)C(=O)c2ccccc2C4=O)cc1`, the TGI in assay [1] was 92.6 µM; in assay [2] it was over 100 µM; in assay [3], over 100 µM; in assay [4] it was 56.5 µM; in assay [5], over 100 µM; in assay [6], 78.5 µM. Also, the TGI in assay [7] is over 100 µM; in assay [8], 85.7 µM.
Take `CC(C)S(=O)(=O)ON1C(=O)c2ccc([N+](=O)[O-])cc2C1=O`: the TGI in assay [1], in assay [2], in assay [3], in assay [4], in assay [5] and in assay [6] was over 100 µM throughout. For the same molecule, the total growth inhibition concentration (TGI) in assay [7] and in assay [8] was over 100 µM throughout.
